Results on seven compounds are retold here after DBAASP.

Converted amounts (≈) assume the structure as drawn. Bounds are passed on as bounds.

Among the test systems are Escherichia coli; Staphylococcus aureus; Bacillus subtilis DELTA; Acinetobacter baumannii; Aeromonas veronii CL0901; Staphylococcus hyicus.
Holding throughout (experiment): ≥ marks a high value that may be exact or a test limit, other limits are often not marked, values filed in µg/mL are converted to µM
The subject of assay [1] is Candida albicans ATCC 10231.
The test system of assay [2] is Cryptococcus neoformans ATCC 32264.
In assay [3] the test system is Bifidobacterium longum subsp. infantis.
For assay [4], the system named is Escherichia coli DH5alpha.
The test system of assay [5] is Zymomonas mobilis ATCC 10988.
Assay [6] relates to Acinetobacter baumannii ATCC 19606.
Assay [7] relates to Bacillus subtilis NBRC 3009.
Assay [8] concerns Escherichia coli NBRC 3972.
Assay [9] deals with Staphylococcus aureus NBRC 13276.
The test system of assay [10] is Aeromonas veronii ATCC 35624.
The test system of assay [11] is Aeromonas veronii X-1-06909.
Assay [12] deals with Candida albicans CMCC 98001.
The test system of assay [13] is Escherichia coli CVCC 1515.
Assay [14] relates to Escherichia coli CVCC 195.
The test system of assay [15] is Escherichia coli CVCC 25922.
Assay [16] concerns Escherichia coli CVCC O157.
For assay [17], the system named is Pseudomonas aeruginosa CICC 21630.
Assay [18] concerns Salmonella enterica subsp. enterica serovar Enteritidis CVCC 3377.
The test system of assay [19] is Salmonella enterica subsp. enterica serovar Pullorum CVCC 1789.
In assay [20] the test system is Salmonella enterica subsp. enterica serovar Pullorum CVCC 1809.
Assay [21] relates to Salmonella enterica subsp. enterica serovar Pullorum CVCC 533.
The test system of assay [22] is Salmonella enterica subsp. enterica serovar Typhimurium ATCC 14028.
Assay [23] deals with Staphylococcus aureus ATCC 25923.
The subject of assay [24] is Staphylococcus aureus ATCC 43300.
In assay [25] the test system is Staphylococcus aureus ATCC 546.
For assay [26], the system named is Staphylococcus hyicus NCTC 10350.
The subject of assay [27] is Acinetobacter baumannii ATCC 7978.
In assay [28] the test system is Klebsiella aerogenes ATCC 13048.
The subject of assay [29] is Klebsiella pneumoniae WGLW2.
For assay [30], the system named is Staphylococcus aureus ATCC 29231.
In assay [31] the test system is Staphylococcus aureus MW2.
The subject of assay [32] is Bacillus subtilis ATCC 6051.
The subject of assay [33] is Escherichia coli NEB5alpha.

The term MIC denotes the smallest concentration in the dilution series that meets the test's criterion for growth inhibition. A low value points to inhibition by little substance. As to `C[C@H](N)C(=O)N[C@@H](CCC(N)=O)C(=O)N[C@@H](Cc1c[nH]c2ccccc12)C(=O)N[C@@H](CCCN=C(N)N)C(=O)N[C@@H](CCCN=C(N)N)C(=O)N[C@@H](Cc1c[nH]c2ccccc12)C(=O)N[C@@H](Cc1c[nH]c2ccccc12)C(=O)N[C@@H](CCC(N)=O)C(=O)N[C@@H](Cc1c[nH]c2ccccc12)C(=O)N[C@@H](CCCN=C(N)N)C(=O)N[C@@H](CCCN=C(N)N)C(N)=O` [AQWRRWWQWRR], the values for the MIC in assay [1] and in assay [2] were 50 µM (≈ 85.7 µg/mL) and 25 µM (≈ 42.8 µg/mL), respectively.

`CSCC[C@H](NC(=O)[C@@H](N)CC(=O)O)C(=O)N[C@@H](CC(C)C)C(=O)N[C@H](C(=O)N[C@H](C(=O)N[C@@H](CC(=O)O)C(=O)N1CCC[C@H]1C(=O)N[C@@H](CCCCN)C(=O)O)C(C)C)C(C)C` [DMLVVDPK]: the MIC is no less than 3270 µM in assay [3], 3270 µM (≈ 3000 µg/mL) in the assay on Escherichia coli and 3270 µM (≈ 3000 µg/mL) in the assay on Staphylococcus aureus.

Consider `CC[C@H](C)[C@H](NC(=O)[C@H](CCCN=C(N)N)NC(=O)[C@H](CCC(N)=O)NC(=O)[C@@H](NC(=O)[C@@H](NC(=O)[C@H](CCCN=C(N)N)NC(=O)[C@H](CCCCN)NC(=O)[C@H](Cc1ccccc1)NC(C)=O)[C@@H](C)CC)C(C)C)C(=O)N[C@@H](CCCN=C(N)N)C(=O)N[C@@H](CC(=O)O)C(=O)N[C@@H](Cc1ccccc1)C(=O)N[C@@H](CC(C)C)C(=O)N[C@@H](CCCN=C(N)N)C(N)=O` [FKRIVQRIRDFLR], for which the MIC with Bacillus subtilis DELTA was 22.9 µM (≈ 40.9 µg/mL); in assay [4], no less than 57.2 µM; in assay [5], no less than 114 µM.

Consider `CC[C@H](C)[C@H](NC(=O)[C@H](CO)NC(=O)[C@H](Cc1ccccc1)NC(=O)[C@H](CC(C)C)NC(=O)[C@H](CO)NC(=O)CNC(=O)[C@H](CC(C)C)NC(=O)[C@@H](N)Cc1ccccc1)C(=O)NCC(=O)N[C@@H](CO)C(=O)N[C@@H](CCCCN)C(=O)N[C@@H](CC(C)C)C(=O)N[C@@H](CC(C)C)C(=O)N1CCC[C@H]1C(=O)NCC(=O)N[C@H](C(=O)N[C@H](C(=O)N[C@@H](CCCCN)C(=O)N[C@@H](CC(C)C)C(=O)N[C@@H](Cc1ccccc1)C(=O)N[C@@H](CCC(N)=O)C(=O)N[C@@H](CCCN=C(N)N)C(=O)N[C@@H](CCCCN)C(=O)N[C@@H](CCCCN)C(=O)N[C@@H](CCC(N)=O)C(N)=O)[C@@H](C)CC)C(C)C` [FLGSLFSIGSKLLPGVIKLFQRKKQ], for which the MIC stood at 0.9 µM (≈ 2.52 µg/mL) in assay [6]; 1.8 µM (≈ 5.05 µg/mL) with Acinetobacter baumannii; 0.707 µM (≈ 1.98 µg/mL) in [7]; 10 µM (≈ 28 µg/mL) in assay [8]; 3.54 µM (≈ 9.92 µg/mL) in [9].

For the compound `CC(C)[C@@H]1NC(=O)CNC(=O)[C@H](CC(N)=O)NC(=O)[C@H](CCCN=C(N)N)NC(=O)[C@H](Cc2ccc(O)cc2)NC(=O)[C@H](C(C)C)NC(=O)[C@@H](NC(=O)[C@@H](NC(=O)[C@H](CC(N)=O)NC(=O)[C@H](Cc2c[nH]c3ccccc23)NC(=O)[C@H](C)NC(=O)[C@H](Cc2ccccc2)NC(=O)CN)C(C)C)CSSC[C@@H](C(=O)N[C@@H](Cc2cnc[nH]2)C(=O)N[C@@H](CCCN=C(N)N)C(=O)N2CCC[C@H]2C(=O)N[C@@H](C)C(=O)N[C@@H](CC(N)=O)C(N)=O)NC(=O)[C@H](C(C)C)NC(=O)[C@H](CCCN=C(N)N)NC1=O` [GFAWNVCVYRNGVRVCHRPAN], the MIC in [10] was 26.5 µM (≈ 63.9 µg/mL); against Aeromonas veronii CL0901 it was 26.5 µM (≈ 63.9 µg/mL); in [11] it was 26.5 µM (≈ 63.9 µg/mL); in assay [12] it was no less than 52.9 µM; in assay [13], 1.65 µM (≈ 4 µg/mL); in assay [14], 3.31 µM (≈ 7.99 µg/mL). The MIC amounted to 3.31 µM (≈ 7.99 µg/mL) in assay [15]; 3.31 µM (≈ 7.99 µg/mL) in assay [16]; 26.5 µM (≈ 63.9 µg/mL) in assay [17]; 0.827 µM (≈ 2 µg/mL) in [18]; 6.62 µM (≈ 16 µg/mL) in assay [19]; 3.31 µM (≈ 7.99 µg/mL) in assay [20]. The MIC in assay [21] is 13.2 µM (≈ 32 µg/mL); in [22], 6.62 µM (≈ 16 µg/mL); in assay [23] it was greater than 26.5 µM; in [24] it was greater than 26.5 µM; in assay [25] it was 26.5 µM (≈ 63.9 µg/mL); in assay [26], no less than 52.9 µM. The MIC against Staphylococcus hyicus turned out to be 26.5 µM (≈ 63.9 µg/mL).

Consider `CC[C@H](C)[C@H](NC(=O)[C@H](CCCCN)NC(=O)[C@H](Cc1c[nH]c2ccccc12)NC(=O)[C@@H](N)CC(C)C)C(=O)NCC(=O)N[C@@H](CCCCN)C(=O)N[C@@H](CCCCN)C(=O)N[C@H](C(=O)N[C@@H](Cc1c[nH]c2ccccc12)C(=O)N[C@@H](CCCN=C(N)N)C(=O)N[C@H](C(=O)NCC(=O)N[C@@H](Cc1c[nH]c2ccccc12)C(=O)N[C@@H](CC(N)=O)C(=O)N[C@@H](Cc1c[nH]c2ccccc12)C(=O)N[C@@H](CCCN=C(N)N)C(=O)O)C(C)C)[C@@H](C)CC` [LWKIGKKIWRVGWNWR], for which the MIC in [27] was 7.25 µM (≈ 15.4 µg/mL); in assay [28] it was no less than 60.2 µM; in assay [29], 30.1 µM (≈ 64 µg/mL); in assay [30] it was 30.1 µM (≈ 64 µg/mL); in assay [31], 30.1 µM (≈ 64 µg/mL).

For the compound `CC(C)C[C@H](NC(=O)[C@H](C)NC(=O)[C@H](CC(=O)O)NC(=O)[C@H](CCC(=O)O)NC(=O)[C@H](CC(C)C)NC(=O)[C@H](Cc1ccccc1)NC(=O)[C@H](CC(=O)O)NC(=O)[C@@H](N)CCCN=C(N)N)C(=O)N[C@@H](CC(N)=O)C(=O)O` [RDFLEDALN], the MIC in [32] was no less than 500 µM; in assay [33] it was no less than 1000 µM.
